# In publication PMC10341786 (International Journal of Molecular Sciences, 2023):
# Experiments:
# TBEV = test: microbe, parasite or virus in culture; type: cell-based, Tick-borne encephalitis virus strain Absettarov; conditions: Tick-borne encephalitis virus, PEK, read-out: TBEV EC50
# WNV = test: microbe, parasite or virus in culture; type: cell-based, West Nile virus strain Strix nebulosa-12; conditions: West Nile virus, Vero, read-out: WNV EC50
# in vitro [1] = conditions: pig
# in vitro [2] = conditions: African green monkey
# in vitro [3] = conditions: African green monkey; remark: listed apart in the source
# in vitro [4] = conditions: pig; remark: listed apart in the source
Structure (SMILES),EC50 (TBEV),EC50 (WNV),CC50 (in vitro [1]),CC50 (in vitro [2]),CC50 (in vitro [3]),CC50 (in vitro [4]),melting point
CS(=O)(=O)NC1=NOC2(CCCCCCC2)C1 [3a],> 100 µM,31 ± 2 µM,> 50 µM,> 50 µM,> 50 µM,> 50 µM,
O=S(=O)(NC1=NOC2(CCCCCCC2)C1)c1ccccc1 [3c],> 50 µM,25 ± 7 µM,> 50 µM,> 50 µM,> 50 µM,> 50 µM,
Cc1ccc(S(=O)(=O)NC2=NOC3(CCCCCCC3)C2)cc1 [3d],> 50 µM,14 ± 5 µM,> 50 µM,> 50 µM,> 50 µM,> 50 µM,
Cc1cc(C)c(S(=O)(=O)NC2=NOC3(CCCCCCC3)C2)c(C)c1 [3e],18 ± 7 µM,22 ± 4 µM,> 50 µM,> 50 µM,> 50 µM,> 50 µM,
O=S(=O)(NC1=NOC2(CCCCCCC2)C1)c1ccc2c(c1)OCCO2 [3f],> 50 µM,18 ± 6 µM,> 50 µM,> 50 µM,> 50 µM,> 50 µM,
O=S(=O)(NC1=NOC2(CCCCCCC2)C1)c1ccc(F)cc1F [3g],> 100 µM,28.4 ± 2.2 µM,> 50 µM,> 50 µM,> 50 µM,> 50 µM,
O=[N+]([O-])c1ccccc1S(=O)(=O)NC1=NOC2(CCCCCCC2)C1 [3h],28 ± 7 µM,21.5 ± 0.9 µM,> 50 µM,> 50 µM,> 50 µM,> 50 µM,
O=S(=O)(NC1=NOC2(CCCCCCC2)C1)c1cccs1 [3k],> 100 µM,6.1 ± 1.3 µM,> 50 µM,> 50 µM,> 50 µM,> 50 µM,
O=S(=O)(NC1=NOC2(CCCCCCC2)C1)c1cccnc1 [3l],> 100 µM,11 ± 7 µM,> 50 µM,> 50 µM,> 50 µM,> 50 µM,
"CS(=O)(=O)N(C1=NOC2(CCCCCCC2)C1)S(C)(=O)=O [4a, N-(Methylsulfonyl)-N-(1-oxa-2-azaspiro[4.7]dodec-2-en-3-yl)methanesulfonamide]",27 ± 12 µM,10 ± 6 µM,> 50 µM,> 50 µM,> 50 µM,> 50 µM,139 to 141 °C
"O=S(=O)(Cc1ccccc1)N(C1=NOC2(CCCCCCC2)C1)S(=O)(=O)Cc1ccccc1 [4b, N-(Benzylsulfonyl)-1-phenyl-N-(1-oxa-2-azaspiro[4.7]dodec-2-en-3-yl)methanesulfonamide]",> 50 µM,16 ± 8 µM,> 50 µM,> 50 µM,> 50 µM,> 50 µM,176 to 177 °C
"O=S(=O)(c1ccccc1)N(C1=NOC2(CCCCCCC2)C1)S(=O)(=O)c1ccccc1 [4c, N-(Phenylsulfonyl)-N-(1-oxa-2-azaspiro[4.7]dodec-2-en-3-yl)benzenesulfonamide]",9 ± 2 µM,2.6 ± 1.4 µM,> 50 µM,> 50 µM,> 50 µM,> 50 µM,139 to 141 °C
"Cc1ccc(S(=O)(=O)N(C2=NOC3(CCCCCCC3)C2)S(=O)(=O)c2ccc(C)cc2)cc1 [4d, 4-Methyl-N-(1-oxa-2-azaspiro[4.7]dodec-2-en-3-yl)-N-tosylbenzenesulfonamide]",21 ± 13 µM,3 ± 1.9 µM,> 50 µM,> 50 µM,> 50 µM,> 50 µM,151 to 153 °C
"Cc1cc(C)c(S(=O)(=O)N(C2=NOC3(CCCCCCC3)C2)S(=O)(=O)c2c(C)cc(C)cc2C)c(C)c1 [4e, N-(Mesitylsulfonyl)-2,4,6-trimethyl-N-(1-oxa-2-azaspiro[4.7]dodec-2-en-3-yl)benzenesulfonamide]",12 ± 7 µM,4.8 ± 1 µM,> 50 µM,> 50 µM,> 50 µM,> 50 µM,180 to 182 °C
"O=S(=O)(c1ccc2c(c1)OCCO2)N(C1=NOC2(CCCCCCC2)C1)S(=O)(=O)c1ccc2c(c1)OCCO2 [4f, N-((2,3-Dihydrobenzo[b][1, 4]dioxin-6-yl)sulfonyl)-N-(1-oxa-2-azaspiro[4.7]dodec-2-en-3-yl)-2,3-dihydrobenzo[b][1, 4]dioxine-6-sulfonamide]",13 ± 6 µM,7.1 ± 1 µM,> 50 µM,> 50 µM,> 50 µM,> 50 µM,191 to 193 °C
"O=S(=O)(c1ccc(F)cc1F)N(C1=NOC2(CCCCCCC2)C1)S(=O)(=O)c1ccc(F)cc1F [4g, N-((2,4-Difluorophenyl)sulfonyl)-2,4-difluoro-N-(1-oxa-2-azaspiro[4.7]dodec-2-en-3-yl)benzenesulfonamide]",> 50 µM,9.8 ± 2.6 µM,> 50 µM,> 50 µM,> 50 µM,> 50 µM,61 to 62 °C
"O=S(=O)(c1ccc2ccccc2c1)N(C1=NOC2(CCCCCCC2)C1)S(=O)(=O)c1ccc2ccccc2c1 [4j, N-(Naphthalen-2-ylsulfonyl)-N-(1-oxa-2-azaspiro[4.7]dodec-2-en-3-yl)naphthalene-2-sulfonamide]",17 ± 3 µM,1.3 ± 0.5 µM,> 50 µM,> 50 µM,> 50 µM,> 50 µM,160 to 161 °C
"O=S(=O)(c1cccs1)N(C1=NOC2(CCCCCCC2)C1)S(=O)(=O)c1cccs1 [4k, N-(1-Oxa-2-azaspiro[4.7]dodec-2-en-3-yl)-N-(thiophen-2-ylsulfonyl)thiophene-2-sulfonamide]",> 50 µM,10 ± 4 µM,> 50 µM,> 50 µM,> 50 µM,> 50 µM,147 °C
"O=S(=O)(c1cccnc1)N(C1=NOC2(CCCCCCC2)C1)S(=O)(=O)c1cccnc1 [4l, N-(Pyridin-3-ylsulfonyl)-N-(1-oxa-2-azaspiro[4.7]dodec-2-en-3-yl)pyridine-3-sulfonamide]",15 ± 4 µM,8 ± 4 µM,> 50 µM,> 50 µM,> 50 µM,> 50 µM,151 to 152 °C
"O=S(=O)(Cc1ccccc1)N(C1=NOC2CCCCCCC12)S(=O)(=O)Cc1ccccc1 (stereo not shown) [5b, N-(Benzylsulfonyl)-N-(3a,4,5,6,7,8,9,9a-octahydrocycloocta[d]isoxazol-3-yl)-1-phenylmethanesulfonamide]",21.7 ± 2.8 µM,6.3 ± 1.2 µM,> 50 µM,> 50 µM,> 50 µM,> 50 µM,198 to 199 °C
"O=S(=O)(c1ccccc1)N(C1=NOC2CCCCCCC12)S(=O)(=O)c1ccccc1 (stereo not shown) [5c, N-(3a,4,5,6,7,8,9,9a-Octahydrocycloocta[d]isoxazol-3-yl)-N-(phenylsulfonyl)benzenesulfonamide]",> 50 µM,18 ± 4 µM,> 50 µM,> 50 µM,> 50 µM,> 50 µM,107 to 108 °C
"O=[N+]([O-])c1ccccc1S(=O)(=O)N(C1=NOC2CCCCCCC12)S(=O)(=O)c1ccccc1[N+](=O)[O-] (stereo not shown) [5h, 2-Nitro-N-((2-nitrophenyl)sulfonyl)-N-(3a,4,5,6,7,8,9,9a-octahydrocycloocta[d]isoxazol-3-yl)benzenesulfonamide]",12 ± 6 µM,17 ± 3 µM,> 50 µM,,,> 50 µM,153 to 154 °C
"NC(=O)c1nc(F)c[nH]c1=O [Favipiravir, reference compound]",,102 ± 28 µM,,> 1000 µM,> 1000 µM,> 1000 µM,
"Nc1onc(C(=O)OCC23CC4CC(CC(C4)C2)C3)c1CCc1ccccc1 [compound 6, reference compound]",2.29 ± 0.17 µM,,> 100 µM,,> 100 µM,> 100 µM,
